# Laboratory results published in patent US20250268860A1, “COMPOSITION FOR USE IN THE CUTANEOUS SYNTHESIS OF HYALURONIC ACID, IN AN IMMUNO-CUTANEOUS RESPONSE AND TO IMPROVE SKIN” (JR, priority 2021, published 2025).
# Where two headings read alike, the source gives them in different places.
# Tests used:
# beta-defensin-2 (hBD-2) = assay: hBD-2 release from keratinocytes, ELISA; format: cell-based, human; conditions: for hBD-2 % control / hBD-2 Mean / hBD-2: 72 hours; for hBD-2: single values
# Experimental: More specifically, the effect of these compounds was evaluated on the release of beta-defensin-2 (hBD -2) by Enzyme-Linked Immunosorbent Assay (ELISA). Prior to this, a preliminary cytotoxicity test was performed using a standard WST-8 reduction assay to determine the concentrations to be tested.
# (§1) • Cell type: Normal human epidermal keratinocytes (NHEK), used at the third passage • Culture conditions: 37° C., 5% CO2 • Culture medium: Keratinocyte-SFM optimized for the test, supplemented with Epidermal Growth Factor and pituitary extract
# The keratinocytes were seeded in 96-well plates and cultured in culture medium for 24 hours. The medium was then replaced with culture medium containing or not (control) the compounds to be tested or the reference cytokine mixture (IL-17+IL-22+TNF-α at 5 ng/ml each). The cells were then incubated for 72 hours. All the experimental conditions were performed in n=3.
# The inter-group comparisons were made using the unpaired bilateral Student's t-test. The statistical analyses can be interpreted if n>5; however for n<5, the calculated data are provided purely as a guide.
# [1] = system: Fibroblasts from healthy skin (FS)
# Experimental: Fibroblasts from healthy skin (FS) are cultured from biopsies performed on a patient, on a skin explant derived from surgery and considered as surgical waste. The conventional explantation technique is used for fibroblast extraction. The explants are cultured in Dulbecco's modified Eagle's medium supplemented with 10% fetal calf serum (FCS), 40 mg/l gentamicin and 2 mg/l fungizone (DMEMc) at 37° C., in a humid atmosphere and in the presence of 5% CO2.
# The study of cell viability in the presence of the active principles to be tested is performed by means of an MTT assay. MTT is a tetrazolium salt whose ring is transformed by mitochondrial dehydrogenases. The yellow substrate is transformed into a dark blue product by living cells, but not by dead cells or the culture medium. This colorimetric test allows the color intensity to be linked to the number of living cells. The absorbance at 550 nm is directly proportional to the number of living fibroblasts. Cytotoxicity occurs when the cell viability is less than 80% relative to the control.
# The active agents in powder form were taken up in 100% DMSO so as to obtain the stock solutions. […] After 24 hours of culturing, the active principles to be tested were added. Twelve concentrations of each active principle were tested (n=10/concentration). The active agents were dissolved directly in the culture medium from the stock solutions. After 24 hours of culturing in the presence of the active agents, an MTT assay was performed.
# Following the cytotoxicity results of the two active agents alone, a second cytotoxicity test was performed with the mixture. For each mixture, three concentrations were tested (n=10/concentration): • C1: highest concentration • C2: ½ dilution • C3: […]
# The values are expressed as a percentage relative to the control, plus or minus the standard error of the distribution of the means (SEM). A one-factor analysis of variance is performed, followed if necessary by a Fisher test. Significance is retained only when p<0.05.
# [2] = system: hyaluronic acid synthesis; assay: Hyaluronic acid assay (ELISA) in fibroblast culture supernatant; format: cell-based, human
# Experimental: At confluence, the fibroblasts were trypsinized and seeded in 6-well plates at 0.08×10^6 cells per well in DMEMc 10% FCS. After 24 hours of culturing, the medium was replaced with DMEMc 1% FCS.
# After 24 hours of culturing, 2 ml of medium with or without active agent were added. The active agents were diluted to the concentrations chosen following cytotoxicity tests in DMEMc 1% FCS culture medium.
# Aliquots were stored at −80° C. until assayed. The cell monolayers were washed with PBS and 500 μl of 0.1N NaOH were added. The cell lyzate was stored at −20° C. until protein assay.
# The amount of hyaluronic acid in the various samples was determined by ELISA (Enzyme-Linked Immunosorbent Assay) using a TECO@kit. This kit is a sensitive sandwich assay which uses microplates coated with hyaluronic acid binding protein (HABP) and HRP-conjugated HABP binding protein for detection. The HRP-conjugated HABP binding protein binds to the hyaluronic acid contained in the sample, and then reacts with the substrate. The color intensity is proportional to the HA content of the sample.
# 100 μl of standard or 100 μl of sample diluted to 1:50 were added to each well. The plate was incubated for 2 hours at room temperature, with agitation. After washing the plate, 100 μl of HRBP-HRP conjugate were added to each well. The plate was incubated for 30 minutes at room temperature, with agitation. After washing the wells, 100 μl of TMB substrate were added. The plate was incubated for 30 minutes at room temperature, in the dark and with agitation. The reaction was stopped by adding 100 μl of stop solution per well. Optical density readings were immediately taken at 450 nm.
# The calibration curve was plotted, representing OD as a function of hyaluronic acid concentration. A regression curve was then plotted and the amounts of hyaluronic acid contained in the samples were determined by means of the equation of this regression curve. The hyaluronic acid concentrations are expressed in ng/mg of protein.
# A calibration range (0-2 mg/ml) was established using a solution of bovine serum albumin. 20 μl of each point of the calibration or sample range were placed in duplicate in the wells of a 96-well plate. 200 μl of Pierce reagent were added and the plate was incubated for 30 minutes at 37° C. The absorbance was read immediately at 550 nm (MultiSkan FC spectrophotometer, Thermo).
# Significance is retained only when p<0.05.
# [3] = system: Normal human epidermal keratinocytes (NHEK); assay: Preliminary test of cytotoxicity, WST-8 reduction and morphological observations; format: cell-based; conditions: 72 h
# Experimental: as §1
# • Cell type: NHEK in culture medium • Incubation time: 72 hours • Evaluation parameters: WST-8 reduction and morphological microscopic observations.
# At the end of the treatment, the cells were incubated in the presence of WST-8 (a highly water-soluble tetrazolium salt), reduced to a water-soluble, orange-colored product (formazan) by succinate dehydrogenase (a mitochondrial enzyme). This transformation is proportional to the number of living cells and their metabolic activity. The optical density (OD) was measured with a spectrophotometer at 450 nm (VERSAmax, Molecular Devices).
# Percentage viability: viability (%)=(OD compound/OD control)×100
smiles,measurement,setting,value
"O=C(/C=C/c1ccc(O)c(O)c1)O[C@@H]1C[C@](O)(C(=O)O)C[C@@H](O)[C@H]1O [GPCB07, chlorogenic acid]",effect on beta-defensin-2 release from human epidermal keratinocytes,beta-defensin-2 (hBD-2),no effect
same,hBD-2 % control,beta-defensin-2 (hBD-2); 0.0033%,<73 % control
same,hBD-2 Mean,beta-defensin-2 (hBD-2); 0.0033%,<8 pg/mL
same,hBD-2,beta-defensin-2 (hBD-2); 0.0033%,<8 pg/mL
same,hBD-2 % control,beta-defensin-2 (hBD-2); 0.01%,<73 % control
same,hBD-2 Mean,beta-defensin-2 (hBD-2); 0.01%,<8 pg/mL
same,hBD-2,beta-defensin-2 (hBD-2); 0.01%,<8 pg/mL
same,hBD-2 % control,beta-defensin-2 (hBD-2); 0.03%,<73 % control
same,hBD-2 Mean,beta-defensin-2 (hBD-2); 0.03%,<8 pg/mL
same,hBD-2,beta-defensin-2 (hBD-2); 0.03%,<8 pg/mL
same,maximum non-cytotoxic concentration retained,"[1]; female, human, 24 h",100 µM
same,Viability (%/Ctrl),"[1]; female, human, 24 h, 0.5 μM",95.14 %/Ctrl
same,Viability (%/Ctrl),"[1]; female, human, 24 h, 1 μM",94.89 %/Ctrl
same,Viability (%/Ctrl),"[1]; female, human, 24 h, 5 μM",101.75 %/Ctrl
same,Viability (%/Ctrl),"[1]; female, human, 24 h, 10 μM",89.63 %/Ctrl
same,Viability (%/Ctrl),"[1]; female, human, 24 h, 25 μM",100.28 %/Ctrl
same,Viability (%/Ctrl),"[1]; female, human, 24 h, 50 μM",99.64 %/Ctrl
same,Viability (%/Ctrl),"[1]; female, human, 24 h, 75 μM",103.28 %/Ctrl
same,Viability (%/Ctrl),"[1]; female, human, 24 h, 100 μM",100.41 %/Ctrl
same,improvement of hyaluronic acid (HA) content of skin cells reported in Ref. 18,"[2]; 100 μM, FIG. 4",could not be reproduced
same,decrease of hyaluronic acid synthesis,"[2]; tested alone, 100 μM, 48 hours, relative to control",about 20%
"O=C(O)[C@H]1O[C@@H](Oc2cc3oc(-c4ccccc4)cc(=O)c3c(O)c2O)[C@H](O)[C@@H](O)[C@@H]1O [GPCB09, baicalin]",effect on beta-defensin-2 release from human epidermal keratinocytes,beta-defensin-2 (hBD-2),no effect
same,hBD-2 % control,beta-defensin-2 (hBD-2); 0.0001%,<73 % control
same,hBD-2 Mean,beta-defensin-2 (hBD-2); 0.0001%,<8 pg/mL
same,hBD-2,beta-defensin-2 (hBD-2); 0.0001%,<8 pg/mL
same,hBD-2 % control,beta-defensin-2 (hBD-2); 0.0003%,<73 % control
same,hBD-2 Mean,beta-defensin-2 (hBD-2); 0.0003%,<8 pg/mL
same,hBD-2,beta-defensin-2 (hBD-2); 0.0003%,<8 pg/mL
same,hBD-2 % control,beta-defensin-2 (hBD-2); 0.001%,<73 % control
same,hBD-2 Mean,beta-defensin-2 (hBD-2); 0.001%,<8 pg/mL
same,hBD-2,beta-defensin-2 (hBD-2); 0.001%,<8 pg/mL
same,Viability (%/Ctrl),"[1]; 0.5 μM, 24 hours",99.82 %/Ctrl
same,Viability (%/Ctrl),"[1]; 1.0 μM, 24 hours",98.27 %/Ctrl
same,Viability (%/Ctrl),"[1]; 5.0 μM, 24 hours",101.92 %/Ctrl
same,Viability (%/Ctrl),"[1]; 10.0 μM, 24 hours",100.76 %/Ctrl
same,Viability (%/Ctrl),"[1]; 50.0 μM, 24 hours",86.65 %/Ctrl
same,Viability (%/Ctrl),"[1]; 100.00 μM, 24 hours",21.80 %/Ctrl
same,decrease in cell viability relative to the control,[1]; 75 and 100 μM,very significant
same,concentration causing a significant reduction in cell viability relative to the control,"[1]; 24 hours, MTT",≥ 50 µM
same,maximum non-cytotoxic concentration retained,[1]; active agent alone,25 µM
same,effect on HA content relative to a control test,"[2]; 25 μM, FIG. 4",improve HA content
same,increase of hyaluronic acid synthesis,"[2]; tested alone, 25 μM, 48 hours, relative to control",about 30%
same,Viability Mean (%),[3]; 0.0004 mg/mL,99%
same,Viability Mean (%),[3]; 0.0012 mg/mL,96%
same,Viability Mean (%),[3]; 0.0037 mg/mL,87%
same,Viability Mean (%),[3]; 0.011 mg/mL,66%
same,Viability Mean (%),[3]; 0.033 mg/mL,35%
same,Viability Mean (%),[3]; 0.098 mg/mL,21%
same,Viability Mean (%),[3]; 0.287 mg/mL,19%
same,Viability Mean (%),[3]; 0.38 mg/mL,1%
